Measurements reported in patent publication US20080200393A1, “Method and Composition For Treating Angiogenesis and For Preventing Cancer Progression and Metastasis Comprising a Prostate Secretory Protein (Psp94) Family Member” (Ambrillia Biopharma Inc., priority 2004, published 2008).
Where no end group is shown, it is not given here.

Tests used:
[1] = tested on: HUVEC; assay: HUVEC migration assay (modified Boyden chambers, gelatin-coated filters); assay type: cell-based, Human
Description: Migration Assays. Transwells filters (8-μm pore size; Costar, Cambridge, Mass.) were pre-coated with 0.5% gelatin/PBS for 24 h at 4° C. The transwells were then washed with PBS and assembled in 24-well plates. The upper chamber of each transwell was filled with 100 μl of HUVEC (1×10^6 cells/ml) and cells were allowed to adhere for 1 h. Cells were then treated for 2 h by adding 100 μl of 2-fold concentrated drug solution prepared in serum-free medium into the upper chamber and 600 μl of the drug solution into the lower chamber. Migration was initiated by adding VEGF (10 ng/ml), or S1P (1 μM) to the lower chamber. The plate was placed at 37° C. in 5% CO2/95% air for 4 h. Cells that had migrated to the lower surface of the filters were fixed with 10% formalin phosphate and stained with 0.1% Crystal Violet/20% (v/v) methanol. The migration was quantified using computer-assisted imaging and data are expressed as the average density of migrated cells per four fields (magnification×50).
Cells were plated onto gelatin-coated filters inserted in modified Boyden chemotactic chambers. The effect of PCK3145 on basal migration and on VEGF-induced migration was monitored by the number of cells that had migrated comparatively to untreated control cells. HUVEC were dislodged from the flasks by trypsinization, washed and resuspended in serum-free media. Cells were placed onto gelatin-coated filters inserted in chambers and incubated at 37° C., 5% CO2 for 30 min to allow adequate anchoring to the filters. The monolayers were then exposed to serum-free media containing PCK3145 (300 μg/ml) added within the upper and lower compartment of the chambers. After 2 h, VEGF (50 ng/ml) was added in the lower chamber as a chemoattractant. Cell migration was allowed to proceed for another 3 h. Filters were then fixed, stained, and the migrated cells quantified by microscopy as described in the Methods section. […] The effect of. PCK on S1P-induced HUVEC migration was also measured, but no inhibition was observed (not shown) in this particular assay.

[2] = target: T1, PDGF receptor (PDGFR) (Homo sapiens, UniProt P09619); assay: PDGF-induced PDGFR phosphorylation in PASMC; assay type: cell-based
T1 construct: the PDGF receptor (PDGFR) in PASMC (pulmonary aortic smooth muscle cells); host or cells: PASMC (pulmonary aortic smooth muscle cells)
Description: (§1) Cell culture. Human umbilical vein endothelial cells (HUVEC) and pulmonary aortic smooth muscle cells (PASMC) were obtained from Clonetics and maintained in endothelial cell basal medium-2 (EBM-2; Clonetics) and smooth muscle medium-2 (SmGM-2; Clonetics), respectively. Cells were cultured at 37° C. under a humidified atmosphere containing 5% CO2. For experimental purposes, cells were plated in 8 100-mm plastic dishes at 5,000 cells/cm^2 and were grown to confluence before overnight serum starvation. Cells were treated with vehicle or with a PCK3145 derivative diluted in 0.1 N NaOH, and stimulated with 50-100 ng/ml VEGF or PDGF, with 10 ng/ml of bFGF (basic fibroblast growth factor) or with 1 μM S1P (sphingosine-1-phosphate).
(§2) Immunoprecipitation and immunoblotting procedures. After treatment, cells were washed once with phosphate-buffered saline (PBS) containing 1 mM sodium orthovanadate and were incubated in the same medium for 1 h at 4° C. […] The cells were then scraped from the culture dishes and the resulting lysates were clarified by centrifugation at 10,000 g for 10 min; Protein concentrations were determined using the micro bicinchoninic acid method (Pierce). […] The immunoreactive bands were quantified by scanning densitometry (Molecular Dynamics). […]

[3] = tested on: ERK; assay: PDGF-induced ERK phosphorylation in PASMC; assay type: cell-based
Description: as §1, §2

T1 sequence (P09619 33-1106): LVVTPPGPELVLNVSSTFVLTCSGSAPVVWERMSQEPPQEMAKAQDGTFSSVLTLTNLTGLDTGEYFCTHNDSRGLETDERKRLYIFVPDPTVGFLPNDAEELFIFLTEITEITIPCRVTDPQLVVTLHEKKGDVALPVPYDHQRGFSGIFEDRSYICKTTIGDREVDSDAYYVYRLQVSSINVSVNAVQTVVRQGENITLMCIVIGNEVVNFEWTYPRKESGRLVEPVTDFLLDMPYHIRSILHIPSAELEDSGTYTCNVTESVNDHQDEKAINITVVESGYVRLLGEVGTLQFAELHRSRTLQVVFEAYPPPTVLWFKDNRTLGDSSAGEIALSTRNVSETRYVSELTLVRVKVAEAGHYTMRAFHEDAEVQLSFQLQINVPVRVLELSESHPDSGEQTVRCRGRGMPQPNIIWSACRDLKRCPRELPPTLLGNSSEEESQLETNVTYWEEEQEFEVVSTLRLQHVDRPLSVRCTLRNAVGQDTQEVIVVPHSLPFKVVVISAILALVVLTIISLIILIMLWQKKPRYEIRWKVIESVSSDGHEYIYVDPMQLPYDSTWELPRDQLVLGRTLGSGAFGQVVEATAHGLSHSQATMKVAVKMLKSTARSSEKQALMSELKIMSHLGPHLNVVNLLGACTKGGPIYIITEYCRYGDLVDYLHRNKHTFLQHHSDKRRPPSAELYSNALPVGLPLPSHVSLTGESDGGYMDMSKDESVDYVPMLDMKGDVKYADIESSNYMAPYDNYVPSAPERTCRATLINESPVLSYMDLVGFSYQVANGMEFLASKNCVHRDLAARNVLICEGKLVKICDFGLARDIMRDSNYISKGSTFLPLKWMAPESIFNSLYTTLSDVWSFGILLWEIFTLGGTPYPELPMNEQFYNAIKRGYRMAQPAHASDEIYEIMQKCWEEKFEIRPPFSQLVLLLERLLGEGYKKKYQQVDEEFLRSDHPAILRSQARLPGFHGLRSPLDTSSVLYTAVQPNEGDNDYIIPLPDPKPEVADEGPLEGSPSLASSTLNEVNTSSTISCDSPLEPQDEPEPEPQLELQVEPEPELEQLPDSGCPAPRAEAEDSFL

Question: Which “S1P-induced HUVEC migration” value [1] does the source give for “EWQTDNCETCTCYET (cysteine pairing not given here) [PCK3145 derivative, PCK3145 derivative with acetylaminomethyl groups on the three cysteines]” here?
Answer: no inhibition

Question: And the “PDGFR phosphorylation induced by PDGF” value [2]?
Answer: inhibition

Question: And the “PDGF-induced ERK phosphorylation” value [3]?
Answer: inhibition
